Measurements reported in US20260265199A1, “CRYSTALLINE FORMS OF (R)-2-AMINO-5-(4-(2-(3,5-DIFLUOROPHENYL)-2-HYDROXYACETAMIDO)-2-METHYLPHENYL)-N-ISOPROPYLNICOTINAMIDE AND METHODS FOR USING THE SAME” (HIBERCELL, INC., priority 2023, published 2026).
Counter-ions that a name gives are not always drawn.

Assay: Phase 1a study: pharmacokinetics after oral BID dosing in subjects with advanced solid tumors
Format: in vivo, human
Design: Increase in mean: scale not given here
Method: This example describes a first in human, Phase 1a, multi-center, open-label study to establish the maximum tolerated dose (MTD) and evaluate the safety and tolerability of oral dosing of Form A of the hemi-fumarate salt of the compound of formula (I) (Example 11) in a dose-escalating fashion. Form A of the hemi-fumarate salt was orally administered BID every day with food or within 30 minutes of completing a meal, starting at 25 mg, with doses escalating to 50, 100, 200, 400, 600, and 900 mg BID as safety allows for each 3-week treatment cycle.
Up to 36 qualified subjects at 3 to 5 US sites, who have specific tumor types of renal cell carcinoma (RCC), gastric cancer (GC), metastatic breast cancer (MBC), small cell lung cancer (SCLC), and other solid tumors (e.g., non-small cell lung cancer, colorectal cancer, carcinoma of unknown primary) with the exception of rapidly progressing neoplasms (e.g., pancreatic cancer, glioblastoma, hepatocellular carcinoma) received Form A of the hemi-fumarate salt. Every effort was made to ensure approximately 50% of all subjects enrolled were subjects with RCC and GC. The starting dose level was 25 mg twice daily (BID), escalating to 50, 100, and 200 mg BID as safety allows, following the Bayesian Optimal Interval (BOIN) design. The safety monitoring committee (SMC) evaluated the dose-limiting toxicities (DLTs) and cumulative safety and PK data at the end of each cohort. Based on the SMC recommendations after a comprehensive review of PK and safety data for 200 mg BID dose, higher dose levels were evaluated, starting with 400 mg BID. The dose escalated to 600 mg and then 900 mg following the BOIN design starting with 1 subject at each escalated dose, until the MTD was reached or the sponsor or SMC declares the dose most appropriate for clinical development. This Phase 1a will be expanded into a Phase 1b/2a study through a protocol amendment and will then assess the dose and tumor type(s) selected in Phase 1a as the most appropriate for further clinical development. Subjects were dosed until unacceptable toxicity, disease progression per immune-related Response Evaluation Criteria in Solid Tumors (iRECIST), subject withdrawal, any other administrative reasons, or after 2 years of treatment, whichever occurs first. Efficacy was assessed via Response Evaluation Criteria in Solid Tumors 1.1 (RECIST 1.1); computed tomography (CT) scans were conducted every 6 weeks. Safety, including occurrence of dose-limiting toxicities (DLTs), pharmacokinetics (PK), and biomarker parameters were also assessed.
Form A of the hemi-fumarate salt was orally administered BID with food or within 30 minutes of completing a meal, starting at 25 mg, with doses escalating to 50, 100, 200, 400, 600 and 900 mg BID as safety allowed. Up to 24 subjects were enrolled to ensure 12 subjects completed the study at the estimated MTD of Form A of the hemi-fumarate salt. Dosing occurred in 3-week cycles. Subjects spent Cycle 1/Day 1 (C1D1) in the clinic followed by an overnight stay for safety monitoring and PK sampling. Subjects were hospitalized for administration of first 3 doses: CID1 am and pm doses, and Cycle 1/Day 2 (C1D2) am dose; on Days 8, 15, and 21 the am dose was taken in the clinic after the planned PK samples. All other doses were self administered at home.
Results of Cohorts 1 to 6 the study are detailed in Tables 47-50 below.

[1] = 25 mg single oral dose, Cycle 1 Day 1, geometric mean, N = 3
[2] = 25 mg twice daily oral, Cycle 1 Day 21, geometric mean, N = 3
[3] = 50 mg single oral dose, Cycle 1 Day 1, geometric mean, N = 3
[4] = 50 mg twice daily oral, Cycle 1 Day 21, geometric mean, N = 3
[5] = 100 mg single oral dose, Cycle 1 Day 1, geometric mean, N = 4
[6] = 100 mg twice daily oral, Cycle 1 Day 21, geometric mean, N = 3
[7] = 200 mg single oral dose, Cycle 1 Day 1, geometric mean, N = 5
[8] = 200 mg twice daily oral, Cycle 1 Day 21, geometric mean, N = 4
[9] = 300 mg single oral dose, Cycle 1 Day 1, geometric mean, N = 4
[10] = 300 mg twice daily oral, Cycle 1 Day 21, point estimate, N = 1
[11] = 400 mg single oral dose, Cycle 1 Day 1, geometric mean, N = 3
[12] = 400 mg twice daily oral, Cycle 1 Day 21, geometric mean, N = 2
[13] = 600 mg single oral dose, Cycle 1 Day 1, point estimate, N = 1
[14] = 600 mg twice daily oral, Cycle 1 Day 21, point estimate, N = 1

## Cc1cc(NC(=O)[C@H](O)c2cc(F)cc(F)c2)ccc1-c1cnc(N)c(C(=O)NC(C)C)c1 [Form A of the hemi-fumarate salt, (R)-2-amino-5-(4-(2-(3,5-difluorophenyl)-2-hydroxyacetamido)-2-methylphenyl)-N-isopropylnicotinamide]
[1]
  % AUCextrap: 46.8%
  CL/F: 11.4 L/h
  DAUC0-12: 34.0 ng·h/mL/mg
  DAUC0-last: 34.0 ng·h/mL/mg
  DCmax: 4.79 ng/mL/mg
25 mg single oral dose, Cycle 1 Day 1, median, N = 3
  tlast: 12.00 h
[2]
  ARAUC: 4.84
  CL/F: 6.08 L/h
  Ctrough: 359 ng/mL
  DAUC0-last: 164 ng·h/mL/mg
  DAUC0-τ: 164 ng·h/mL/mg
  DCmax: 21.5 ng/mL/mg
[3]
  % AUCextrap: 51.8%
  CL/F: 8.85 L/h
  DAUC0-12: 41.8 ng·h/mL/mg
  DAUC0-last: 41.8 ng·h/mL/mg
  DCmax: 4.87 ng/mL/mg
50 mg single oral dose, Cycle 1 Day 1, median, N = 3
  tlast: 12.00 h
[4]
  ARAUC: 4.34
  CL/F: 5.51 L/h
  Ctrough: 780 ng/mL
  DAUC0-last: 181 ng·h/mL/mg
  DAUC0-τ: 181 ng·h/mL/mg
  DCmax: 19.6 ng/mL/mg
50 mg vs preceding dose level (25 mg), single oral dose, Cycle 1 Day 1
  Increase in mean: 2.46
50 mg vs preceding dose level (25 mg), twice daily oral, Cycle 1 Day 21
  Increase in mean: 2.21
[5]
  DAUC0-12: 28.0 ng·h/mL/mg
  DAUC0-last: 19.3 ng·h/mL/mg
  DCmax: 3.80 ng/mL/mg
100 mg single oral dose, Cycle 1 Day 1, median, N = 4
  tlast: 12.00 h
[6]
  ARAUC: 4.19
  CL/F: 8.53 L/h
  Ctrough: 777 ng/mL
  DAUC0-last: 117 ng·h/mL/mg
  DAUC0-τ: 117 ng·h/mL/mg
  DCmax: 13.1 ng/mL/mg
100 mg vs preceding dose level (50 mg), single oral dose, Cycle 1 Day 1
  Increase in mean: 1.34
100 mg vs preceding dose level (50 mg), twice daily oral, Cycle 1 Day 21
  Increase in mean: 1.29
[7]
  % AUCextrap: 58.7%
  CL/F: 11.1 L/h
  DAUC0-12: 29.0 ng·h/mL/mg
  DAUC0-last: 29.0 ng·h/mL/mg
  DCmax: 4.19 ng/mL/mg
200 mg single oral dose, Cycle 1 Day 1, median, N = 5
  tlast: 12.00 h
[8]
  ARAUC: 4.90
  CL/F: 7.36 L/h
  Ctrough: 1860 ng/mL
  DAUC0-last: 136 ng·h/mL/mg
  DAUC0-τ: 136 ng·h/mL/mg
  DCmax: 14.9 ng/mL/mg
200 mg vs preceding dose level (100 mg), single oral dose, Cycle 1 Day 1
  Increase in mean: 2.07
200 mg vs preceding dose level (100 mg), twice daily oral, Cycle 1 Day 21
  Increase in mean: 2.32
[9]
  % AUCextrap: 30.5%
  CL/F: 62.4 L/h
  DAUC0-12: 28.7 ng·h/mL/mg
  DAUC0-last: 28.7 ng·h/mL/mg
  DCmax: 3.80 ng/mL/mg
300 mg single oral dose, Cycle 1 Day 1, median, N = 4
  tlast: 12.00 h
[10]
  ARAUC: 2.87
  CL/F: 10.5 L/h
  Ctrough: 1770 ng/mL
  DAUC0-last: 94.8 ng·h/mL/mg
  DAUC0-τ: 94.8 ng·h/mL/mg
  DCmax: 10.1 ng/mL/mg
300 mg vs preceding dose level (200 mg), single oral dose, Cycle 1 Day 1
  Increase in mean: 1.48
300 mg vs preceding dose level (200 mg), twice daily oral, Cycle 1 Day 21
  Increase in mean: 1.05
[11]
  % AUCextrap: 33.6%
  CL/F: 24.5 L/h
  DAUC0-12: 9.58 ng·h/mL/mg
  DAUC0-last: 9.58 ng·h/mL/mg
  DCmax: 1.62 ng/mL/mg
400 mg single oral dose, Cycle 1 Day 1, min-max, N = 3
  tlast: (12.00-12.00) h
[12]
  ARAUC: 5.15
  CL/F: 7.82 L/h
  Ctrough: 3060 ng/mL
  DAUC0-last: 77.0 ng·h/mL/mg
  DAUC0-τ: 128 ng·h/mL/mg
  DCmax: 9.20 ng/mL/mg
400 mg vs preceding dose level (300 mg), single oral dose, Cycle 1 Day 1
  Increase in mean: 0.44
400 mg vs preceding dose level (300 mg), twice daily oral, Cycle 1 Day 21
  Increase in mean: 1.80
[13]
  DAUC0-12: 19.4 ng·h/mL/mg
  DAUC0-last: 19.4 ng·h/mL/mg
  DCmax: 2.43 ng/mL/mg
  tlast: 12.00 h
[14]
  ARAUC: 5.22
  CL/F: 9.87 L/h
  Ctrough: 5680 ng/mL
  DAUC0-last: 101 ng·h/mL/mg
  DAUC0-τ: 101 ng·h/mL/mg
  DCmax: 9.98 ng/mL/mg
